# Results: patent US9688764B2, “Methods of treating breast cancer by administering anti-human prolactin receptor (PRLR) antibodies” (REGENERON PHARMACEUTICALS, INC., priority 2013, dated 2017)
# Where two headings read alike, the source gives them in different places.
# How the values were obtained:
# HEK293 parental cells = test: Cytotoxicity (cell viability, CCK8) assay; type: cell-based; settings: Table 28, 3 days
# Method: (§1) Next, exemplary anti-IL-4R (H4H083P2) and anti-IL-6R (VV6A9-5) antibodies were conjugated to the cytotoxic drug DM1 and their potency in cytotoxicity assays was evaluated. Briefly, HEK293/IL-4R, Ramos or KG-1 cell lines, as well as HEK293 parental cells were seeded in PDL-coated 96-well plates at 1500 to 10,000 cells per well. ADCs or free DM1 (as the methyl disulfide derivative DM1-SMe) were added to the cells at final concentrations ranging from 300 nM to 15 pM and incubated for 3 days. Cells were incubated with CCK8 (Dojindo, Rockville, Md.) for the final 1-3 hours and the absorbance at 450 nm (OD450) was determined on a Flexstation3 (Molecular Devices, Sunnyvale, Calif.). Background OD450 values from digitonin (40 nM) treated cells were subtracted from all wells and viability was expressed as a percentage of the untreated controls. IC50 values were determined from a four-parameter logistic equation over a 10-point response curve (GraphPad Prism).
# HEK293/IL-4R cells = test: Cytotoxicity (cell viability, CCK8) assay; type: cell-based; settings: HEK293/hIL4R; Table 28; 3 days
# Method: as §1
# KG-1 cells = test: Cytotoxicity (cell viability, CCK8) assay; type: cell-based; settings: Table 28, 3 days
# Method: as §1
# Ramos cells = test: Cytotoxicity (cell viability, CCK8) assay; type: cell-based; settings: Table 28, 3 days
# Method: as §1
# HEK293 (293) cells = test: Cell viability (cell kill) assay; type: cell-based; settings: 293
# How it was run: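 Anti-PRLR–DM1 ADCs (non-cleavable SMCC linker) or free DM1-SMe, 500 nM to 5 pM for 3 days on parental or hPRLR-overexpressing lines. HEK293: CCK8 OD450; MCF7: Hoechst nuclear counts by imaging.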
# [1] = test system: HEK293/hPRLR (293/hPRLR) cells; test: Cell viability (cell kill) assay; type: cell-based, human; settings: 293/PRLR; for IC50: read-out: IC50
# Source text: (§2) PRLR-overexpressing cells, including HEK293, PC3, MCF7 and NCI-N87, were generated to assess the ability of anti-PRLR conjugated antibodies to reduce cell viability. For comparative purposes, PC3 and T47D cells with overexpressed ErbB2 were also generated, as well as an MCF7 cell line over-expressing both hPRLR and hErbB2. Briefly, Lipofectamine® 2000-mediated transfection methodology was utilized to generate HEK293 cells expressing human PRLR (HEK293/hPRLR) or human ErbB2 (HEK293/hErbB2). Lipofectamine LTX with Plus Reagent was used to generate PC3 cells expressing human PRLR (PC3/hPRLR) or human ErbB2 (PC3/hErbB2). Lentiviral-mediated transduction was utilized to generate MCF7 cells expressing human PRLR (MCF7/hPRLR), NCI-N87 cells expressing human PRLR (NCI-N87/hPRLR), T47D cells over-expressing human ErbB2 (T47D/hErbB2), and MCF7 cells expressing both human PRLR and human ErbB2 (MCF7/hPRLR/hErbB2). All lines were selected for at least two weeks in complete growth media plus appropriate selection reagents. Stably expressing populations were enriched for PRLR expression via FACS using the anti PRLR antibody Control I.
# (§3) Next, the ability of anti-PRLR-DM1 antibody-drug conjugates (i.e., anti-PRLR antibodies conjugated to DM1 via a non-cleavable linker [SMCC]) to reduce cell viability was determined using in vitro cell based assays. Cells were seeded in PDL-coated 96 well plates at 1500 to 10000 cells per well in complete growth media and allowed to grow overnight. For cell viability curves, ADCs or free DM1 (as the methyl disulfide derivative DM1-SMe) were added to the cells at final concentrations ranging from 500 nM to 5 pM and incubated for 3 days. The 293, PC3 and T47D cells were incubated with CCK8 (Dojindo, Rockville, Md.) for the final 1-3 hours and the absorbance at 450 nm (OD450) was determined on a Flexstation3 (Molecular Devices, Sunnyvale, Calif.). MCF7 cells were treated with Hoechst 33342 nuclear stain while being fixed with 4% formaldehyde. Images were acquired on the ImageXpress micro XL (Molecular Devices, Sunnyvale, Calif.) and nuclear counts were determined via Columbus image analysis software (Perkin Elmer, Shelton, Conn.). Background OD450 values (PC3, 293, and T47D) or nuclear counts (MCF7) from digitonin (40 nM) treated cells was subtracted from all wells and viability was expressed as a percentage of the untreated controls. IC50 values were determined from a four-parameter logistic equation over a 10-point response curve (GraphPad Prism).
# PC3 cells = test: Cell viability (cell kill) assay; type: cell-based
# How it was run: (§4)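 PC3 and PC3/hPRLR (lipofection-generated, FACS-enriched for PRLR) cells exposed 3 days to anti-PRLR ADCs or free DM1-SMe, 500 nM to 5 pM. Viability by CCK8 OD450, digitonin background subtracted, as % of untreated; IC50 from four-parameter fit of 10-point curves.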
# PC3/hPRLR cells = test: Cell viability (cell kill) assay; type: cell-based, human; settings: PC3/PRLR
# How it was run: as §4
# MCF7 (MCF7/ATCC) cells = test: Cell viability (cell kill) assay, nuclear counts; type: cell-based; settings: MCF7
# How it was run: (§5)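 Anti-PRLR ADCs or free DM1-SMe were added at 500 nM to 5 pM final to cells seeded overnight and were incubated 3 days. MCF7 lines were fixed with 4% formaldehyde plus Hoechst 33342, and nuclei were counted by imaging, with digitonin […] background subtracted. Viability was expressed as % of untreated cells, and IC50 was obtained from a 4-parameter fit of a 10-point curve.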
# [2] = test system: MCF7/hPRLR (MCF7/PRLR) cells; test: Cell viability (cell kill) assay, nuclear counts; type: cell-based, human
# How it was run: as §5
# T47D cells = test: Cell viability (cell kill) assay; type: cell-based; settings: T47D; for IC50: read-out: IC50
# How it was run: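 T47D cells grown overnight, then exposed 3 days to anti-PRLR ADCs (DM1 via non-cleavable SMCC linker, or other maytansinoid toxins) or free DM1-SMe, 500 nM to 5 pM. Viability by CCK8 OD450, digitonin background subtracted, as % of untreated; IC50 from 10-point four-parameter fit. PRL (15 nM) co-incubation tested separately.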
# NCI-N87 cells = test: Cell viability (cell kill) assay; type: cell-based; settings: Table 17
# Source text: as §2, §3
# The potency of anti-PRLR conjugated antibodies compared with a similarly conjugated antibody to the co-expressed ErbB2 cell surface target was also assessed. […]
# HEK293/hErbB2 cells = test: Cell viability (cell kill) assay; type: cell-based, human; settings: 293/ErbB2; Table 14
# Source text: as §2, §3
# (§6) The potency of anti-PRLR conjugated antibodies compared with a similarly conjugated antibody to the co-expressed ErbB2 cell surface target was also assessed. Both PRLR and ErbB2 are expressed in a majority of breast cancers, and anti-ErbB2 antibodies conjugated to DM1 have shown clinical efficacy in targeting ErbB2 (+) breast cancer (Hurvitz et al; 2013).
# MCF7/hPRLR/hErbB2 cells = test: Cell viability (cell kill) assay; type: cell-based, human; settings: MCF/PRLR + ErbB2; Table 17
# Source text: as §2, §3, §6
# NCI-N87/hPRLR cells = test: Cell viability (cell kill) assay; type: cell-based, human; settings: NCI-N87/PRLR; Table 17
# Source text: as §2, §3, §6
# PC3/hErbB2 cells = test: Cell viability (cell kill) assay; type: cell-based, human; settings: PC3/ErbB2; Table 15
# Source text: as §2, §3, §6
# T47D/hErbB2 cells = test: Cell viability (cell kill) assay; type: cell-based, human; settings: T47D/ErbB2; Table 16
# Source text: as §2, §3, §6
# SK-BR-3 cells = test: Cell viability (cell kill) assay; type: cell-based; settings: Table 16
smiles,measurement,setting,value
COc1cc2cc(c1Cl)N(C)C(=O)C[C@H](OC(=O)[C@H](C)N(C)C(=O)CCS)[C@]1(C)O[C@H]1[C@H](C)[C@@H]1C[C@@](O)(NC(=O)O1)[C@H](OC)/C=C/C=C(\C)C2 [DM1 (Free Drug)],% Kill,HEK293 parental cells,100%
same,IC50,HEK293 parental cells,0.27 nM
same,% Kill,HEK293/IL-4R cells,98%
same,IC50,HEK293/IL-4R cells,0.33 nM
same,% Kill,KG-1 cells,89%
same,IC50,KG-1 cells,1.26 nM
same,% Kill,Ramos cells,100%
same,IC50,Ramos cells,0.34 nM
COc1cc2cc(c1Cl)N(C)C(=O)C[C@H](OC(=O)[C@H](C)N(C)C(=O)CCS)[C@]1(C)O[C@H]1[C@H](C)[C@@H]1C[C@@](O)(NC(=O)O1)[C@H](OC)/C=C/C=C(\C)C2 [DM1 (free drug)],% Kill,"HEK293 (293) cells; Table 11, 3 days",98%
same,IC50,"HEK293 (293) cells; Table 11, 3 days",0.27 nM
same,% Kill,HEK293 (293) cells; Table 14,95%
same,IC50,HEK293 (293) cells; Table 14,0.5 nM
same,% Kill,"[1]; Table 11, 3 days",97%
same,IC50,"[1]; Table 11, 3 days",0.36 nM
same,% Kill,[1]; Table 14,95%
same,IC50,[1]; Table 14,0.82 nM
same,% Kill,"PC3 cells; Table 11, 3 days",91%
same,IC50,"PC3 cells; Table 11, 3 days",0.47 nM
same,% Kill,PC3 cells; Table 15,88%
same,IC50,PC3 cells; Table 15,0.44 nM
same,% Kill,"PC3/hPRLR cells; Table 11, 3 days",80%
same,IC50,"PC3/hPRLR cells; Table 11, 3 days",0.59 nM
same,% Kill,PC3/hPRLR cells; Table 15,82%
same,IC50,PC3/hPRLR cells; Table 15,0.24 nM
same,% Kill,"MCF7 (MCF7/ATCC) cells; Table 12, 3 days",83%
same,IC50,"MCF7 (MCF7/ATCC) cells; Table 12, 3 days",1.17 nM
same,% Kill,MCF7 (MCF7/ATCC) cells; Table 16,78%
same,IC50,MCF7 (MCF7/ATCC) cells; Table 16,0.54 nM
same,% Kill,"[2]; Table 12, 3 days",88%
same,IC50,"[2]; Table 12, 3 days",1.47 nM
same,% Kill,[2]; Table 17,79%
same,IC50,[2]; Table 17,1.85 nM
same,% Kill,"T47D cells; Table 12, 3 days",86%
same,IC50,"T47D cells; Table 12, 3 days",0.45 nM
same,% Kill,T47D cells; Table 16,80%
same,IC50,T47D cells; Table 16,0.21 nM
same,% Kill,NCI-N87 cells,95%
same,IC50,NCI-N87 cells,0.84 nM
same,% Kill,HEK293/hErbB2 cells,100%
same,IC50,HEK293/hErbB2 cells,0.26 nM
same,% Kill,MCF7/hPRLR/hErbB2 cells,77%
same,IC50,MCF7/hPRLR/hErbB2 cells,0.82 nM
same,% Kill,NCI-N87/hPRLR cells,98%
same,IC50,NCI-N87/hPRLR cells,1.45 nM
same,% Kill,PC3/hErbB2 cells,85%
same,IC50,PC3/hErbB2 cells,0.42 nM
same,% Kill,T47D/hErbB2 cells,71%
same,IC50,T47D/hErbB2 cells,0.18 nM
same,% Kill,SK-BR-3 cells,74%
same,IC50,SK-BR-3 cells,0.39 nM
